The target of the assay is T1, PilF159-302 (GSPII-B domain) (Thermus thermophilus, UniProt Q5SLC9).
T1 sequence (Q5SLC9 159-302): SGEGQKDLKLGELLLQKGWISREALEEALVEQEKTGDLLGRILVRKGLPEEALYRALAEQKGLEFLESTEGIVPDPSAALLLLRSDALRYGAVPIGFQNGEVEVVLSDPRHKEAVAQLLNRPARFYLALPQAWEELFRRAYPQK
The assay is described as follows: ITC binding to PilF159-302. On the procedure:
To assess the ligand-binding capabilities of the various PilF constructs, triplicates of ITC measurements were recorded for each construct. The measurements were carried out using a MicroCal ITC200 (Malvern Panalytical). […] All protein samples were extensively dialyzed against the sample buffer and the buffer used for dialysis was used to dilute protein and c-di-GMP samples in preparation for the ITC measurements. Each measurement was conducted using the following protocol. In total, 39.8 μl c-di-GMP were titrated to 270 μl protein in 20 separate injections in 180 s intervals with a stirring speed of 750 rpm. After an initial delay of 120 s, the first injection of 0.2 μl c-di-GMP with a duration of 0.4 s was followed by 19 injections of 2 μl with a duration of 4 s. During the measurement, the feedback mode was set to high and the reference power to 11 μcal s^−1. To optimize precision of the measurements, protein and c-di-GMP concentrations were adjusted to the binding capabilities of the respective constructs and ranged from 5 to 200 μM for protein and 50 to 2000 μM for c-di-GMP. All thermograms were processed using Origin 7.0 (OriginLab) using a one-site– or two-site–binding model dependent on the number of expected binding events.

One compound from article PMC11731258, “The structural basis for high-affinity c-di-GMP binding to the GSPII-B domain of the traffic ATPase PilF from Thermus thermophilus” (The Journal of Biological Chemistry, 2024) can be followed below.

Molecules are shown by their SMILES.

One may read the Kd as a measure of binding affinity in units of concentration. Read a high Kd as a looser complex. Compound `O=c1[nH]cnc2c1ncn2[C@@H]1O[C@@H]2COP(=O)(O)O[C@H]3[C@@H](O)[C@H](n4cnc5c(=O)[nH]cnc54)O[C@@H]3COP(=O)(O)O[C@H]2[C@H]1O` [c-di-IMP, cyclic dimeric inosine-monophosphate] showed a Kd of 60 ± 1 nM. In addition, for the setting “ITC, 20 °C”, the N is 0.74 ± 0.03, the ΔH was -7.103 ± 0.234 kcal/mol and the ΔS is given as 8.8 ± 0.8 cal/mol/deg.
